This experiment deals with JEB01 keratinocytes (COL17A1 R688X). The experiment can be described thus: G418-induced PTC readthrough (Collagen XVII, Western blot) in JEB01 keratinocytes. In kind it is cell-based, human. Conditions: pretreatment 150 μM AC1903, increasing concentrations of G418 (Fig. 2E). The protocol: Figure 2 Effect of AC1903 on PTC readthrough and G418 trafficking.A and B, DMS-114 (A) or TC-71 (B) cells were pretreated with indicated concentrations of AC1903 for 3 h followed by exposure to 400 μg/ml G418. After 3 h medium was replenished and at 24 h cell lysates were prepared and p53 levels were measured. C and E, DMS-114 (C) or JEB01 (E) cells were either left untreated or pretreated with 150 μM AC1903 for 3 h followed by exposure to indicated concentrations of G418 for another 3 h. At 24 h cell lysates were prepared and p53 (C) or Collagen XVII (E) levels were measured. In panels A–C, protein levels were measured by automated capillary electrophoresis Western analysis (using vinculin as loading control). In panel E, protein levels were measured by Western blot (using beta-actin as loading control). […] D, total intracellular levels of G418 were measured in the same lysates as in (C) (n = 5; data normalized to the highest response in each experiment; bars represent mean ± SD). F, total intracellular levels of G418 were measured in the same lysates as in (E) (n = 2; data normalized to the highest response in each experiment; bars represent mean ± SD). ∗ indicates statistically significant difference between samples according to one-way ANOVA (p < 0.05). […]
(In general: Immunoblotting shows a protein as a band on a membrane.)

SMILES strings stand for the structures.

One compound from PMC8808171, “Nonselective TRPC channel inhibition and suppression of aminoglycoside-induced premature termination codon readthrough by the small molecule AC1903” (The Journal of Biological Chemistry, 2022) can be followed below.

`c1ccc(Cn2c(NCc3ccco3)nc3ccccc32)cc1` [AC1903]: the “decline of full-length Collagen XVII” value is given as 45–80%.
